According to paper PMC11220795 (Molecular Pharmaceutics, 2024):
Where two headings read alike, the source gives them in different places.

Legend:
[1] = decadic logarithm of molar solubility in MCTs, cited from earlier work
[2] = Drug solubility in medium-chain triglycerides (MCT, Miglyol 812 N); SORESOS 96-well assay, miniaturized shake-flask or literature; settings: decadic logarithm of molar solubility in MCTs (Miglyol 812 N), 24 h at room temperature; no literature source given
Method: The excipient complies with the quality specifications of the European Pharmacopoeia. The solvents used for the ultra-performance liquid chromatography (UPLC) quantification were of UPLC grade.
(b) employing a miniaturized version of the shake-flask method in 2 mL glass vials,[33] or (c) collecting data from the literature.[12],[34] Each of the employed assays involved residual solid-state screenings by powder X-ray diffraction to identify potential solid-state changes during solubility screenings.

[3] = ref Alskär, L.C., Porter, C.J. and Bergström, C.A., 2016
[4] = ref Alsenz, J. and Kuentz, M., 2019

| Compound | log10 S [M] [2] | further results |
| --- | --- | --- |
| CCC(C)n1ncn(-c2ccc(N3CCN(c4ccc(OCC5COC(Cn6cncn6)(c6ccc(Cl)cc6Cl)O5)cc4)CC3)cc2)c1=O (centres unmarked) [itraconazole] | – | log10 S [M] [1, 3]: -3.59 M |
| COc1ccc(Cl)cc1C(=O)NCCc1ccc(S(=O)(=O)NC(=O)NC2CCCCC2)cc1 [glibenclamide] | – | log10 S [M] [1, 4]: -3.62 M |
| COc1cc2c(c(OC)c1OC)-c1ccc(OC)c(=O)cc1[C@@H](NC(C)=O)CC2 [colchicine] | – | log10 S [M] [1, 4]: -2.34 M |
| C[C@]12CC[C@H]3[C@@H](CCC4=CC(=O)CC[C@@]43C)[C@@H]1CC[C@@H]2O [testosterone] | – | log10 S [M] [1, 4]: -1.56 M |
| CC(C(=O)O)c1ccc(-c2ccccc2)c(F)c1 (centres unmarked) [flurbiprofen] | – | log10 S [M] [1, 4]: -0.86 M |
| CC(C)Cc1ccc(C(C)C(=O)O)cc1 (centres unmarked) [ibuprofen] | – | log10 S [M] [1, 4]: -0.82 M |
| CC(C)C(=O)Nc1ccc([N+](=O)[O-])c(C(F)(F)F)c1 [flutamide] | -0.97 M | – |
| CC(C)/N=c1\cc2n(-c3ccc(Cl)cc3)c3ccccc3nc-2cc1Nc1ccc(Cl)cc1 [clofazimine] | -1.65 M | – |
| Nc1ccc(S(=O)(=O)Nc2nccs2)cc1 [sulfathiazole] | – | log10 S [M] ([1]; ref Wyttenbach, N. 2007, AAPS PharmSci360 Poster W4355): -3.93 M |
| OC(Cn1cncn1)(Cn1cncn1)c1ccc(F)cc1F [fluconazole] | -2.19 M | – |
| Cn1nnnc1Cn1nnc2c(N3CC[C@@H](O)C3)nc(C(C)(C)C)nc21 [RO6868847] | -1.56 M | – |
| CCC1=C(C)CN(C(=O)NCCc2ccc(S(=O)(=O)NC(=O)N[C@H]3CC[C@H](C)CC3)cc2)C1=O [glimepiride] | -4.38 M | – |
| CC(C)(C)c1ccc(C(O)CCCN2CCC(C(O)(c3ccccc3)c3ccccc3)CC2)cc1 (centres unmarked) [terfenadine] | -2.05 M | – |
| O=C1[C@H](CC[C@H](O)c2ccc(F)cc2)[C@@H](c2ccc(O)cc2)N1c1ccc(F)cc1 [ezetimibe] | – | log10 S [M] [1, 4]: -2.16 M |
| CN(C(=O)C(C)(C)c1cc(C(F)(F)F)cc(C(F)(F)F)c1)c1cnc(N2CCOCC2)cc1-c1ccccc1Cl [RO0676789] | -1.07 M | – |
| O=C(N[C@@H]1CCCC[C@H]1O)c1cnc(OCC(F)(F)F)c(-c2ccc(Cl)c(Cl)c2)c1 [RO5267683] | -2.34 M | – |
| CC(C)(Oc1ccc(C(=O)c2ccc(Cl)cc2)cc1)C(=O)O [fenofibric acid] | – | log10 S [M] [1, 3]: -2.21 M |
| CCOc1nc2cccc(C(=O)O)c2n1Cc1ccc(-c2ccccc2-c2nnn[nH]2)cc1 [candesartan] | – | log10 S [M] [1, 3]: -4.64 M |
| CC(C)(C)c1ccc(CN(CCc2cc(F)cc(C(F)(F)F)c2)C(=O)c2cc(C(F)(F)F)cc(Cl)c2F)cc1 [RO5072744] | 0.0355 M | – |

| Compound | log10 S [M] [2] | further results |
| --- | --- | --- |
| CN1C(=O)N(c2ccc(C#Cc3ccccc3)cn2)[C@@H]2CCC[C@H]21 [RO6805600] | -1.07 M | – |
| O=C(C1CCCCC1)N1CC(=O)N2CCc3ccccc3C2C1 (centres unmarked) [praziquantel] | – | log10 S [M] [1, 3]: -1.38 M |
| O=C(O)c1cc(-c2ccc(F)cc2F)ccc1O [diflunisal] | – | log10 S [M] [1, 3]: -1.18 M |
| O=C(O)c1cc(/N=N/c2ccc(S(=O)(=O)Nc3ccccn3)cc2)ccc1O [sulfasalazine] | – | log10 S [M] [1, 4]: -4.24 M |
| c1ccc(-c2ccc(C(c3ccccc3)n3ccnc3)cc2)cc1 (centres unmarked) [bifonazole] | – | log10 S [M] ([1]; ref Wyttenbach, N., Niederquell, A., Ectors, P. and Kuentz, M., 2022): -1.97 M |
| CCCS(=O)(=O)Nc1ccc(F)c(C(=O)c2c[nH]c3ncc(-c4ccc(Cl)cc4)cc23)c1F [RO5185426] | -3.06 M | – |
| CN1CC(=O)N2[C@H](c3ccc4c(c3)OCO4)c3[nH]c4ccccc4c3C[C@@H]2C1=O [tadalafil] | -2.99 M | – |
| Cc1cc(N(C)Cc2sc(-c3ccc(C(F)(F)F)cc3)nc2C)ccc1OCC(=O)O [RO4632615] | -2.28 M | – |
| O=C1CCc2cc(OCCCCc3nnnn3C3CCCCC3)ccc2N1 [cilostazol] | -3.68 M | – |
| C/C(O)=C(\C#N)C(=O)Nc1ccc(C(F)(F)F)cc1 [teriflunomide] | -2.30 M | – |
| CCOC(=O)C1=C(C)NC(C)=C(C(=O)OCC)C1c1ccccc1/C=C/C(=O)OC(C)(C)C [lacidipine] | -2.00 M | – |
| COC1=CC(=O)C[C@@H](C)[C@]12Oc1c(Cl)c(OC)cc(OC)c1C2=O [griseofulvin] | – | log10 S [M] [1, 4]: -2.59 M |
| COC(=O)Nc1nc2ccc(Sc3ccccc3)cc2[nH]1 [fenbendazole] | – | log10 S [M] [1, 3]: -3.20 M |
| Cn1c(COc2cc(Cl)c(C#N)cc2C(C)(C)C)n[nH]c1=O [RO7189752] | -2.76 M | – |
| Cc1cc(C#Cc2cn(-c3ccc(F)cc3)c(C)n2)ccn1 [RO4582939] | -1.38 M | – |
| COc1cc(C)c(/C=C/C(C)=C/C=C/C(C)=C/C(=O)O)c(C)c1C [acitretin] | – | log10 S [M] [1, 3]: -3.13 M |
| COc1ccc(N2CCOCC2)c2sc(NC(=O)c3ccc(F)cc3)nc12 [RO0716689] | -2.41 M | – |
| O=C(O)COC(=O)Cc1ccccc1Nc1c(Cl)cccc1Cl [aceclofenac] | -1.84 M | – |
| CC1(C)CCC(C)(C)c2cc(Cn3cccn3)c(/C=C/c3ccc(C(=O)O)cc3)cc21 [palovarotene] | -3.47 M | – |
